Experiments:
Assay in all cases: KINOMEscan binding assay
Conditions in all cases: read-out: % Ctrl @ 10000 nM
[1] = target: BMPR1A (Homo sapiens, UniProt P36894)
[2] = target: FGFR3 (Homo sapiens, UniProt P22607)
[3] = target: EPHA7 (Homo sapiens, UniProt Q15375)
[4] = target: NIK (Homo sapiens, UniProt Q99558)
[5] = target: EGFR (Homo sapiens, UniProt P00533)
[6] = target: MRCKA (Homo sapiens, UniProt Q5VT25)
[7] = target: PRKCE (Homo sapiens, UniProt Q02156)
[8] = target: TTK (Homo sapiens, UniProt P33981)
[9] = target: PIK3C2B (Homo sapiens, UniProt O00750)
[10] = target: SNRK (Homo sapiens, UniProt Q9NRH2)
[11] = target: MARK2 (Homo sapiens, UniProt Q7KZI7)
[12] = target: TGFBR1 (Homo sapiens, UniProt P36897)
Chain of TGFBR1 (P36897 34-503): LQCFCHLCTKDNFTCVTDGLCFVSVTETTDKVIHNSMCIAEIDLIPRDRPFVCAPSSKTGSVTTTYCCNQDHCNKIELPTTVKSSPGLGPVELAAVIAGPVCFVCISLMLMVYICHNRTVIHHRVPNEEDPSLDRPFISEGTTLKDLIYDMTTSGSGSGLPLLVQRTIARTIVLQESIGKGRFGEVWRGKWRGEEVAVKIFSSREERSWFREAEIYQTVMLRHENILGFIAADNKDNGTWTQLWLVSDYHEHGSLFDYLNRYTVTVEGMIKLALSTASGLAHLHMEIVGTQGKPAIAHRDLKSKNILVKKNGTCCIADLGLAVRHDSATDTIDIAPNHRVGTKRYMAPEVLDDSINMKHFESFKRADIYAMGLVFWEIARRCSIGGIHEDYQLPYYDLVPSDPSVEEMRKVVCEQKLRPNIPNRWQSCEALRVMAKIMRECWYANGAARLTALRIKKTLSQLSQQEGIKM

[13] = target: MAP3K2 (Homo sapiens, UniProt Q9Y2U5)
Chain of MAP3K2 (Q9Y2U5 whole entry): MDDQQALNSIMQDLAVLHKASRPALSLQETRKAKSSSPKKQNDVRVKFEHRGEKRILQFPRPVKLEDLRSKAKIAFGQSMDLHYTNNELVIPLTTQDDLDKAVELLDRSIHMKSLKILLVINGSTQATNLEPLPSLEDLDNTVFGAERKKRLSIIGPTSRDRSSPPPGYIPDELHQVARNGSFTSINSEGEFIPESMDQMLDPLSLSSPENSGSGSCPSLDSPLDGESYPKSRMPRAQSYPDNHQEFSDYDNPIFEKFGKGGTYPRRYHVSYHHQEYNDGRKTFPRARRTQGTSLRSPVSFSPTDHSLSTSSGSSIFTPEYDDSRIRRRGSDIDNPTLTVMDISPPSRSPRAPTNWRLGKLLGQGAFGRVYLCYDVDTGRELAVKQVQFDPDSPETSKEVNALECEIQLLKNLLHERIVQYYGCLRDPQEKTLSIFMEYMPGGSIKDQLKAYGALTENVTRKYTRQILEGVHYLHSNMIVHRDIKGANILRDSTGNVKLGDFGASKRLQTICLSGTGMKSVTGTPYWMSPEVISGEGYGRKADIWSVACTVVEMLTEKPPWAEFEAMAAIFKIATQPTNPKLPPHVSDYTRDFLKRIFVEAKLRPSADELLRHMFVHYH

[14] = target: PIK3CA (H1047L) (Homo sapiens, UniProt P42336, H1047L)
[15] = target: LATS1 (Homo sapiens, UniProt O95835)
[16] = target: PIK3CA (Q546K) (Homo sapiens, UniProt P42336, Q546K)
[17] = target: STK39 (Homo sapiens, UniProt Q9UEW8)
[18] = target: ITK (Homo sapiens, UniProt Q08881)
[19] = target: TNK2 (Homo sapiens, UniProt Q07912)
[20] = target: PKAC-alpha (Homo sapiens, UniProt P17612)
[21] = target: MYLK2 (Homo sapiens, UniProt Q9H1R3)
[22] = target: T1, MAP4K4 (Homo sapiens, UniProt O95819)
T1 construct: T7 phage fusion (most assays) or DNA label after HEK293 expression; purchased DiscoveRx (KINOMEscan, LeadHunter Discovery services); host or cells: T7 phage in E. coli (BL21-derived) or HEK293
T1 sequence (O95819 whole entry, the tested form may be a part): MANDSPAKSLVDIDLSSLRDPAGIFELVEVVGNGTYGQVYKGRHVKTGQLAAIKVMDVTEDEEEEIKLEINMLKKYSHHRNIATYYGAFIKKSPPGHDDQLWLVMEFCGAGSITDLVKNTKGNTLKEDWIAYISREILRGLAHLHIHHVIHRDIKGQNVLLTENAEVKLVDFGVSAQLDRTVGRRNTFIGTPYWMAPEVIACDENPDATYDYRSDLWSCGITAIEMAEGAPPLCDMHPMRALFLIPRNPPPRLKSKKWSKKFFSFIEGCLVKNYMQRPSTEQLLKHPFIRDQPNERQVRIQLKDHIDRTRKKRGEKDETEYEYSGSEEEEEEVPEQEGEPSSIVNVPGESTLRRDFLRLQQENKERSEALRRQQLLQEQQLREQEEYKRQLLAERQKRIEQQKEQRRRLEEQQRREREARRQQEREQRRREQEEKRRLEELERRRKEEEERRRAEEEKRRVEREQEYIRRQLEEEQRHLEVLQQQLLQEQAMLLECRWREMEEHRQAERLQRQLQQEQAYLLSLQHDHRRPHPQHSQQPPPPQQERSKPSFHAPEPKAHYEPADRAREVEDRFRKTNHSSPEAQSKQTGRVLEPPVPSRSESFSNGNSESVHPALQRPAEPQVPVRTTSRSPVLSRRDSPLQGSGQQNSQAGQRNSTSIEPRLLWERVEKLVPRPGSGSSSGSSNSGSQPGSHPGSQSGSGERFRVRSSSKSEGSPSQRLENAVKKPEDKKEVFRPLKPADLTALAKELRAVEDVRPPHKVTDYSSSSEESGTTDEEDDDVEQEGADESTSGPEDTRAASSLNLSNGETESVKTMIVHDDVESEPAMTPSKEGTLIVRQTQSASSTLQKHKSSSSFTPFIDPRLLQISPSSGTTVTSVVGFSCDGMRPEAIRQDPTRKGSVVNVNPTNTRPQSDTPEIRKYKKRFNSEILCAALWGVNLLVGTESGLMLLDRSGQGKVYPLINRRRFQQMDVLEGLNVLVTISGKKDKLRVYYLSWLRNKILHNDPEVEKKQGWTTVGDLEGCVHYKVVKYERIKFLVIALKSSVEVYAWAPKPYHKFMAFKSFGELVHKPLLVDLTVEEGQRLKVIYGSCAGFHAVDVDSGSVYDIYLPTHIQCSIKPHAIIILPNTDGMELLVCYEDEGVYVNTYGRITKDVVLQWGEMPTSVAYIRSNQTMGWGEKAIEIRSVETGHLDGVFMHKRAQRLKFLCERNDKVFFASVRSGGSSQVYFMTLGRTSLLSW

[23] = target: ICK (Homo sapiens, UniProt Q9UPZ9)
[24] = target: INSRR (Homo sapiens, UniProt P14616)
[25] = target: CHEK2 (Homo sapiens, UniProt O96017)
[26] = target: RSK1 Kin.Dom.1-N-terminal (Homo sapiens, UniProt Q15418)
Chain of RSK1 Kin.Dom.1-N-terminal (Q15418 62-321 limits assumed): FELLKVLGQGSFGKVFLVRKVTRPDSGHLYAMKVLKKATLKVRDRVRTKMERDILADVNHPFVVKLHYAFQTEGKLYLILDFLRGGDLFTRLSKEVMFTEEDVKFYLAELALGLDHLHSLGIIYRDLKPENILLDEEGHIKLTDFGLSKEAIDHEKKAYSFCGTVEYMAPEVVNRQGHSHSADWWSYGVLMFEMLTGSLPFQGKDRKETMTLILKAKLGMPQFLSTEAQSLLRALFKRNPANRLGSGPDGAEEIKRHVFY

[27] = target: DMPK2 (Homo sapiens, UniProt Q6DT37)
[28] = target: PIM2 (Homo sapiens, UniProt Q9P1W9)
[29] = target: ABL1 (E255K) phosphorylated (Homo sapiens, UniProt P00519, E255K)
[30] = target: CDC2L1 (Homo sapiens, UniProt P21127)
[31] = target: MUSK (Homo sapiens, UniProt O15146)
[32] = target: BRAF (Homo sapiens, UniProt P15056)
[33] = target: BMPR2 (Homo sapiens, UniProt Q13873)
[34] = target: CSNK1A1L (Homo sapiens, UniProt Q8N752)
Chain of CSNK1A1L (Q8N752 whole entry): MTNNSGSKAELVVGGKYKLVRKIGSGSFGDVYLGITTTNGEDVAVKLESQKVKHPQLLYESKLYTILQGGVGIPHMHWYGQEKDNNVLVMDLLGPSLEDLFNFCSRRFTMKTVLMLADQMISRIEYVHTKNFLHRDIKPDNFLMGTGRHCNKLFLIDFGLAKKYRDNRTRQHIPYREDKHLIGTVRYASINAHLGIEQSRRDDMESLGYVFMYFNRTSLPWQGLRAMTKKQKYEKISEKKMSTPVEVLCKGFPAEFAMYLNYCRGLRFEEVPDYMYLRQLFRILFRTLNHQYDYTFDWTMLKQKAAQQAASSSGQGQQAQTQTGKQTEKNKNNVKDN

[35] = target: DDR1 (Homo sapiens, UniProt Q08345)
[36] = target: KIT (D816H) (Homo sapiens, UniProt P10721, D816H)
[37] = target: EPHA2 (Homo sapiens, UniProt P29317)
[38] = target: ACVR2A (Homo sapiens, UniProt P27037)
[39] = target: CDKL2 (Homo sapiens, UniProt Q92772)
[40] = target: PIP5K1C (Homo sapiens, UniProt O60331)
[41] = target: STK16 (Homo sapiens, UniProt O75716)
Chain of STK16 (O75716 whole entry): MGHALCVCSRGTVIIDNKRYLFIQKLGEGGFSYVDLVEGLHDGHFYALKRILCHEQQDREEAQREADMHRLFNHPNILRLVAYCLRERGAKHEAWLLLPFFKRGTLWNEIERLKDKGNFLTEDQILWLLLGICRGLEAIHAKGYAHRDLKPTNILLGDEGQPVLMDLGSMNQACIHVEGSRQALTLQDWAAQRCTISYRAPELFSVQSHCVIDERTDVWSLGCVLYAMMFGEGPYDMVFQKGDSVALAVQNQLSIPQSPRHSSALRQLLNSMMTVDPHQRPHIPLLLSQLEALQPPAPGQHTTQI

[42] = target: LYN (Homo sapiens, UniProt P07948)

Chain of BMPR1A (P36894 24-532): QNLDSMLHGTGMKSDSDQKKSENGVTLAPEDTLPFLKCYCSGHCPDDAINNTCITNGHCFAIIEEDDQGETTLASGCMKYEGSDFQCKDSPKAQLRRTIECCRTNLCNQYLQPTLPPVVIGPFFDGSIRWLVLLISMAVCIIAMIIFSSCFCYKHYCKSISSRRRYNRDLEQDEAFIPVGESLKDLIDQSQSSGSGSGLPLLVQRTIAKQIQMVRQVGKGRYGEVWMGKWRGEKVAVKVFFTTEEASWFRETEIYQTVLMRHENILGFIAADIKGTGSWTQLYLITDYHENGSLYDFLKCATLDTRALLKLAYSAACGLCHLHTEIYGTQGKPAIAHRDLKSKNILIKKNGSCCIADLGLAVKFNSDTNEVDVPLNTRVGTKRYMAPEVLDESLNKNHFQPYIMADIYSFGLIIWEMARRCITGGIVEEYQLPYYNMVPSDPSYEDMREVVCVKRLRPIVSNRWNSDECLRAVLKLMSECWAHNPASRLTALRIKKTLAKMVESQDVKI
Chain of EGFR (P00533 25-1210): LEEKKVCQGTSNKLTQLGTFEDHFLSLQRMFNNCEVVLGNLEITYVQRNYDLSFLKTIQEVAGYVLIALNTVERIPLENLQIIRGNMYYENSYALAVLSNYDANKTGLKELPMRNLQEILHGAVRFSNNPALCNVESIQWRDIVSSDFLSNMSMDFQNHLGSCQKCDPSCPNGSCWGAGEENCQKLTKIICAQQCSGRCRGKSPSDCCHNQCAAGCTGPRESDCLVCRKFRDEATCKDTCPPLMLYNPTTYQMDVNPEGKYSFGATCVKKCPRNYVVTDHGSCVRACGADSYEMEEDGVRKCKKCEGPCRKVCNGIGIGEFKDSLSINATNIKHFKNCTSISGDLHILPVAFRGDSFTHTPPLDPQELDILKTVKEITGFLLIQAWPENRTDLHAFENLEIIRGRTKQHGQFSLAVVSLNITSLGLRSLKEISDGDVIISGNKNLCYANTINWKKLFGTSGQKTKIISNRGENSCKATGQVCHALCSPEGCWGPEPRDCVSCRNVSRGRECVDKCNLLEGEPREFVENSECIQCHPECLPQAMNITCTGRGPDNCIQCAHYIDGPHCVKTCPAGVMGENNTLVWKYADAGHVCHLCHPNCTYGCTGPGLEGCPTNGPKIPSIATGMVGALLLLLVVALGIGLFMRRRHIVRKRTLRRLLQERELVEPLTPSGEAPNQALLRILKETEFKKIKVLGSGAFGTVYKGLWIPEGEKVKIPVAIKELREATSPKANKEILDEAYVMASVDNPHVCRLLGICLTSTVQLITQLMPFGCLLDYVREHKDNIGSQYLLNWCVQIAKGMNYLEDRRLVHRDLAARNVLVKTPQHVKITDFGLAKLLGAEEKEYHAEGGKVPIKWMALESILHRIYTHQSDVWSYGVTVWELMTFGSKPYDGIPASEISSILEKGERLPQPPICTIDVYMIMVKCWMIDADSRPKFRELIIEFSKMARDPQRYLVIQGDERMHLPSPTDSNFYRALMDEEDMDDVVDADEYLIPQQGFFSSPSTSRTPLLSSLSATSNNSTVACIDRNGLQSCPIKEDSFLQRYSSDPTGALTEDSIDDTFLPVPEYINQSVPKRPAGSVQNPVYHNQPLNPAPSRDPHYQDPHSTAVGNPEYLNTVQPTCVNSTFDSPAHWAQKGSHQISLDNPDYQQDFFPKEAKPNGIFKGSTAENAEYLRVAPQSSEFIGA

## Nc1ncc(-c2nc3ccccc3o2)c(-c2ccncc2)n1 [Comparative Compound 324, 5-(1,3-benzoxazol-2-yl)-4-(pyridine-4-yl)pyrimidin-2-amine]
[1]
  remaining binding at 10 µM: 100%
[2]
  remaining binding at 10 µM: 95%
[3]
  remaining binding at 10 µM: 87%
[4]
  remaining binding at 10 µM: 100%
[5]
  remaining binding at 10 µM: 100%
[6]
  remaining binding at 10 µM: 99%
[7]
  remaining binding at 10 µM: 95%
[8]
  remaining binding at 10 µM: 100%
[9]
  remaining binding at 10 µM: 83%
[10]
  remaining binding at 10 µM: 65%
[11]
  remaining binding at 10 µM: 91%
[12]
  remaining binding at 10 µM: 94%
[13]
  remaining binding at 10 µM: 87%
[14]
  remaining binding at 10 µM: 100%
[15]
  remaining binding at 10 µM: 100%
[16]
  remaining binding at 10 µM: 90%
[17]
  remaining binding at 10 µM: 100%
[18]
  remaining binding at 10 µM: 86%
[19]
  remaining binding at 10 µM: 100%
[20]
  remaining binding at 10 µM: 91%
[21]
  remaining binding at 10 µM: 100%
[22]
  remaining binding at 10 µM: 97%
[23]
  remaining binding at 10 µM: 99%
[24]
  remaining binding at 10 µM: 100%
[25]
  remaining binding at 10 µM: 100%
[26]
  remaining binding at 10 µM: 86%
[27]
  remaining binding at 10 µM: 82%
[28]
  remaining binding at 10 µM: 98%
[29]
  remaining binding at 10 µM: 33%
[30]
  remaining binding at 10 µM: 91%
[31]
  remaining binding at 10 µM: 100%
[32]
  remaining binding at 10 µM: 77%
[33]
  remaining binding at 10 µM: 100%
[34]
  remaining binding at 10 µM: 81%
[35]
  remaining binding at 10 µM: 94%
[36]
  remaining binding at 10 µM: 86%
[37]
  remaining binding at 10 µM: 98%
[38]
  remaining binding at 10 µM: 100%
[39]
  remaining binding at 10 µM: 100%
[40]
  remaining binding at 10 µM: 75%
[41]
  remaining binding at 10 µM: 89%
[42]
  remaining binding at 10 µM: 99%

## CNc1c(C(N)=O)c2ccccn2c1C(=O)c1ccc(F)cc1 [Compound A, 2-methyl-amino-3-[(4-fluorophenyl)carbonyl]indolizine-1-carboxamide]
[1]
  remaining binding at 10 µM: 100%
[2]
  remaining binding at 10 µM: 90%
[3]
  remaining binding at 10 µM: 82%
[4]
  remaining binding at 10 µM: 100%
[5]
  remaining binding at 10 µM: 49%
[6]
  remaining binding at 10 µM: 94%
[7]
  remaining binding at 10 µM: 96%
[8]
  remaining binding at 10 µM: 92%
[9]
  remaining binding at 10 µM: 74%
[10]
  remaining binding at 10 µM: 66%
[11]
  remaining binding at 10 µM: 85%
[12]
  remaining binding at 10 µM: 92%
[13]
  remaining binding at 10 µM: 73%
[14]
  remaining binding at 10 µM: 100%
[15]
  remaining binding at 10 µM: 93%
[16]
  remaining binding at 10 µM: 93%
[17]
  remaining binding at 10 µM: 81%
[18]
  remaining binding at 10 µM: 78%
[19]
  remaining binding at 10 µM: 81%
[20]
  remaining binding at 10 µM: 42%
[21]
  remaining binding at 10 µM: 100%
[22]
  remaining binding at 10 µM: 86%
[23]
  remaining binding at 10 µM: 93%
[24]
  remaining binding at 10 µM: 100%
[25]
  remaining binding at 10 µM: 100%
[26]
  remaining binding at 10 µM: 72%
[27]
  remaining binding at 10 µM: 65%
[28]
  remaining binding at 10 µM: 65%
[29]
  remaining binding at 10 µM: 15%
[30]
  remaining binding at 10 µM: 85%
[31]
  remaining binding at 10 µM: 96%
[32]
  remaining binding at 10 µM: 93%
[33]
  remaining binding at 10 µM: 88%
[34]
  remaining binding at 10 µM: 1.2%
[35]
  remaining binding at 10 µM: 2.6%
[36]
  remaining binding at 10 µM: 86%
[37]
  remaining binding at 10 µM: 70%
[38]
  remaining binding at 10 µM: 98%
[39]
  remaining binding at 10 µM: 85%
[40]
  remaining binding at 10 µM: 67%
[41]
  remaining binding at 10 µM: 81%
[42]
  remaining binding at 10 µM: 54%

Reference: patent publication US10815230B2, “Casein kinase 1 delta inhibitor” (ELECTROPHORETICS LIMITED, priority 2015, dated 2020)
